The target of assay [1] is T1, SARS-CoV-2 PLpro (nsp3 1564–1878) (Severe acute respiratory syndrome coronavirus 2, UniProt P0DTD1). In words: biochemical. Further details: FRET-quenched peptide (Pro3) cleavage by PLpro, 10 min pre-incubation, slope over 20 min, normalised to no-compound control. The note with it: low concentration screen, read-out: % of control remaining.
Assay [2] has as its target T1, SARS-CoV-2 PLpro (nsp3 1564–1878). As to the kind of experiment: biochemical. The settings on record: high concentration screen, read-out: % of control remaining. Also noted: FRET-quenched peptide (Pro3) cleavage by PLpro, 10 min pre-incubation, slope over 20 min, normalised to no-compound control.

Where a name gives a salt, the structure may show the parent alone. Read-outs that look alike come from different tables or passages of the source.

As for `C/C(=C/C(=O)O)C(=O)O` [Citraconic acid], the remaining activity at 1.25 µM in assay [1] (Well no.=6261) was 102%. In addition, in assay [2] (Well no.=6261), the remaining activity at 3.75 µM amounted to 89.6%.

For `COc1cc(=O)oc(/C=C/C=C/C=C/C(C)=C/[C@]2(C)O[C@H](C)[C@](C)(O)[C@H]2O)c1C` [Citreoviridin], the remaining activity at 1.25 µM in assay [1] (Well no.=3391) was 92.8%. Also, the remaining activity at 3.75 µM in assay [2] (Well no.=3391) was 96.6%.

Consider `O=C(O)CC(O)(CC(=O)O)C(=O)O` [Citric acid], for which the results for the remaining activity at 1.25 µM in assay [1] (Well no.=6195) and in assay [1] (Well no.=6298) were 104% and 103%, respectively. In addition, the remaining activity at 3.75 µM came out at 103% in assay [2] (Well no.=6195) and 104% in assay [2] (Well no.=6298).

On to `CC1=C2C(=CO[C@H](C)[C@H]2C)C(O)=C(C(=O)O)C1=O` [Citrinin], for which the remaining activity at 1.25 µM in assay [1] (Well no.=3171) stood at 101%. Also, the remaining activity at 3.75 µM in assay [2] (Well no.=3171) was 107%.

In the case of `Nc1nc(Cl)nc2c1ncn2[C@H]1C[C@H](O)[C@@H](CO)O1` [Cladribine], the remaining activity at 1.25 µM in assay [1] (Well no.=5101) came to 107%; in assay [1] (Well no.=8050), 99%. Besides, the results for the remaining activity at 3.75 µM in assay [2] (Well no.=5101) and in assay [2] (Well no.=8050) were 108% and 100%, respectively.

For the compound `CC[C@H]1OC(=O)[C@H](C)[C@@H](O[C@H]2C[C@@](C)(OC)[C@@H](O)[C@H](C)O2)[C@H](C)[C@@H](O[C@@H]2O[C@H](C)C[C@H](N(C)C)[C@H]2O)[C@](C)(OC)C[C@@H](C)C(=O)[C@H](C)[C@@H](O)[C@]1(C)O` [Clarithromycin], in assay [1] (Well no.=2267), the remaining activity at 1.25 µM was determined as 89%. Moreover, the remaining activity at 3.75 µM in assay [2] (Well no.=2267) worked out at 89.2%.

Take `COc1cc(N)c(Cl)cc1C(=O)NC1CCN(Cc2ccccc2)CC1` [Clebopride (malate)]: in assay [1] (Well no.=7335), the remaining activity at 1.25 µM stood at 105%. For the same compound, in assay [2] (Well no.=7335), the remaining activity at 3.75 µM stood at 102%.

On to `Clc1ccc(Cn2c(CN3CCCC3)nc3ccccc32)cc1` [Clemizole (hydrochloride)], for which the remaining activity at 1.25 µM in assay [1] (Well no.=6558) is 93.9%. Also, the remaining activity at 3.75 µM in assay [2] (Well no.=6558) was found to be 93.2%.

In the case of `Clc1ccc(Cn2c(CN3CCCC3)nc3ccccc32)cc1` [Clemizole hydrochloride], in assay [1] (Well no.=226), the remaining activity at 1.25 µM was found to be 98.5%. Besides, the remaining activity at 3.75 µM in assay [2] (Well no.=226) came out at 98%.

Take `CC(C)(C)NCC(O)c1cc(Cl)c(N)c(Cl)c1` (stereo not shown) [Clenbuterol (hydrochloride)]: in assay [1] (Well no.=7371), the remaining activity at 1.25 µM worked out at 103%. Further, the remaining activity at 3.75 µM in assay [2] (Well no.=7371) was determined as 104%.

As for `CC(C)(C)NCC(O)c1cc(Cl)c(N)c(Cl)c1` (stereo not shown) [Clenbuterol], the remaining activity at 1.25 µM in assay [1] (Well no.=1743) amounted to 102%. In assay [2] (Well no.=1743), the remaining activity at 3.75 µM amounted to 102%.

Regarding `Cc1cn([C@H]2O[C@@H](CO)[C@H](O)[C@H]2F)c(=O)[nH]c1=O` [Clevudine], the figures for the remaining activity at 1.25 µM in assay [1] (Well no.=8012) and in assay [1] (Well no.=8342) were 98% and 92.4%, respectively. In addition, the remaining activity at 3.75 µM in assay [2] (Well no.=8012) was 100%; in assay [2] (Well no.=8342), 91.2%.

On to `CC(C)(C)C(=O)C(Oc1ccc(Cl)cc1)n1ccnc1` (stereo not shown) [Climbazole], for which the remaining activity at 1.25 µM in assay [1] (Well no.=2269) was determined as 98.8%. Also, the remaining activity at 3.75 µM in assay [2] (Well no.=2269) was found to be 99.5%.

In the case of `NC1CCN(c2c(F)cc3c(=O)c(C(=O)O)cn(C4CC4)c3c2Cl)C1` (stereo not shown) [Clinafloxacin], in assay [1] (Well no.=2271), the remaining activity at 1.25 µM came out at 93.2%. Besides, the remaining activity at 3.75 µM in assay [2] (Well no.=2271) was 96.8%.

As for `CCCCCCCCCCCCCCCC(=O)O[C@@H]1[C@@H](O)[C@@H](O)[C@@H]([C@H](NC(=O)[C@@H]2C[C@@H](CCC)CN2C)[C@H](C)Cl)O[C@@H]1SC` [Clindamycin palmitate.HCl], the remaining activity at 1.25 µM in assay [1] (Well no.=1864) was found to be 100%. Also, the remaining activity at 3.75 µM in assay [2] (Well no.=1864) worked out at 102%.

Turning to `CCC[C@@H]1C[C@@H](C(=O)N[C@@H]([C@H]2O[C@H](SC)[C@H](OP(=O)(O)O)[C@@H](O)[C@H]2O)[C@H](C)Cl)N(C)C1` [Clindamycin phosphate], the remaining activity at 1.25 µM in assay [1] (Well no.=5052) came to 105%. For the same compound, the remaining activity at 3.75 µM in assay [2] (Well no.=5052) worked out at 104%.

`CCC(C)(Oc1ccc(C2(c3ccc(OC(C)(CC)C(=O)O)cc3)CCCCC2)cc1)C(=O)O` (stereo not shown) [Clinofibrate]: the remaining activity at 1.25 µM in assay [1] (Well no.=5332) was 96.6%. Also, the remaining activity at 3.75 µM in assay [2] (Well no.=5332) turned out to be 98.1%.

Turning to `CCC(=O)O[C@]1(C(=O)CCl)[C@@H](C)C[C@H]2[C@@H]3CCC4=CC(=O)C=C[C@]4(C)[C@@]3(F)[C@@H](O)C[C@@]21C` [Clobetasol propionate], the results for the remaining activity at 1.25 µM in assay [1] (Well no.=1924) and in assay [1] (Well no.=8301) were 98.4% and 95.3%, respectively. In addition, the remaining activity at 3.75 µM in assay [2] (Well no.=1924) stood at 99.3%; in assay [2] (Well no.=8301), 89.7%.

Turning to `O=P(O)(O)C(Cl)(Cl)P(=O)(O)O` [Clodronic acid], the values for the remaining activity at 1.25 µM in assay [1] (Well no.=737) and in assay [1] (Well no.=1862) were 95.6% and 92.6%, respectively. Moreover, the remaining activity at 3.75 µM in assay [2] (Well no.=737) worked out at 96.9%; in assay [2] (Well no.=1862), 90.7%.

With `Nc1nc(Cl)nc2c1ncn2[C@@H]1O[C@H](CO)[C@@H](O)[C@@H]1F` [Clofarabine], the figures for the remaining activity at 1.25 µM in assay [1] (Well no.=1927) and in assay [1] (Well no.=8004) were 103% and 98.8%, respectively. The remaining activity at 3.75 µM came to 103% in assay [2] (Well no.=1927) and 97.4% in assay [2] (Well no.=8004).

Take `CC(C)/N=c1\cc2n(-c3ccc(Cl)cc3)c3ccccc3nc-2cc1Nc1ccc(Cl)cc1` [Clofazimine]: in assay [1] (Well no.=5649), the remaining activity at 1.25 µM was 101%. For the same compound, in assay [2] (Well no.=5649), the remaining activity at 3.75 µM is 100%.

With `CCOC(=O)C(C)(C)Oc1ccc(Cl)cc1` [Clofibrate], the remaining activity at 1.25 µM in assay [1] (Well no.=326) was 94.4%; in assay [1] (Well no.=1899), 94.1%; in assay [1] (Well no.=4468), 93.7%. Further, the remaining activity at 3.75 µM turned out to be 94.8% in assay [2] (Well no.=326), 94% in assay [2] (Well no.=1899) and 99.4% in assay [2] (Well no.=4468).

On to `CC(C)(Oc1ccc(Cl)cc1)C(=O)O` [Clofibric Acid], for which the remaining activity at 1.25 µM in assay [1] (Well no.=8394) stood at 87%. Further, the remaining activity at 3.75 µM in assay [2] (Well no.=8394) came out at 81.1%.

For the compound `CCCCCCC[N+](CC)(CC)CCCCc1ccc(Cl)cc1` [Clofilium tosylate], in assay [1] (Well no.=6882), the remaining activity at 1.25 µM stood at 91.1%. For the same compound, the remaining activity at 3.75 µM in assay [2] (Well no.=6882) came out at 90.5%.

Consider `CCN(CC)CCOc1ccc(C(=C(Cl)c2ccccc2)c2ccccc2)cc1` [Clomiphene], for which the remaining activity at 1.25 µM in assay [1] (Well no.=2273) is 96.5%. In addition, the remaining activity at 3.75 µM in assay [2] (Well no.=2273) was 96.3%.

Take `CN(C)CCCN1c2ccccc2CCc2ccc(Cl)cc21` [Clomipramine hydrochloride]: the remaining activity at 1.25 µM in assay [1] (Well no.=328) was determined as 101%. Also, the remaining activity at 3.75 µM in assay [2] (Well no.=328) came out at 98.6%.

For the compound `Clc1cccc(Cl)c1NC1=NCCN1` [Clonidine (hydrochloride)], in assay [1] (Well no.=6755), the remaining activity at 1.25 µM turned out to be 99.8%. In assay [2] (Well no.=6755), the remaining activity at 3.75 µM is 98.3%.
